# Data published in patent publication US10597388B2, “Pyridazinone herbicides” (FMC CORPORATION, priority 2014, dated 2020).
# Assays:
# Experiment in all cases: Test D controlled growth environment herbicide test, pre- and postemergence
# Type in all cases: in vivo
# [1] = test system: bromegrass, downy (downy bromegrass, Bromus tectorum)
# Outline: (§1)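 Pre-emergence: seeds sown in silt loam soil were sprayed with compound in a non-phytotoxic solvent mix containing surfactant. Post-emergence: plants at 2 to 18 cm (1- to 4-leaf stage) in peat moss/vermiculite medium got the same formulation. Visual 0–100 rating versus controls after 14 to 21 d.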
# [2] = test system: barley, winter (winter barley, Hordeum vulgare)
# Outline: as §1
# [3] = test system: lambsquarters (Chenopodium album)
# Outline: as §1
# [4] = test system: field poppy (Papaver rhoeas)
# Outline: as §1
# [5] = test system: blackgrass (Alopecurus myosuroides)
# Outline: as §1
# [6] = test system: foxtail, green (green foxtail, Setaria viridis)
# Outline: as §1
# [7] = test system: barley, spring (spring barley, Hordeum vulgare)
# Outline: as §1
# [8] = test system: chickweed (common chickweed, Stellaria media)
# Outline: as §1
# [9] = test system: chamomile (scentless chamomile, Matricaria inodora)
# Outline: as §1
# [10] = test system: ryegrass, Italian (Italian ryegrass, Lolium multiflorum)
# Outline: as §1
# [11] = test system: deadnettle (henbit deadnettle, Lamium amplexicaule)
# Outline: as §1
# [12] = test system: wheat, winter (winter wheat, Triticum aestivum)
# Outline: as §1
# [13] = test system: wheat, spring (spring wheat, Triticum aestivum)
# Outline: as §1
# [14] = Postemergence, 31 g ai/ha, scale 0 to 100 (0 no effect, 100 complete control)
# [15] = Postemergence, 125 g ai/ha, visual rating on scale 0 (no effect) to 100 (complete control), 14 to 21 d
# [16] = Postemergence, 250 g ai/ha, scale 0 to 100 (0 no effect, 100 complete control)
# [17] = Preemergence, 62 g ai/ha, scale 0 to 100 (0 no effect, 100 complete control)
# [18] = Preemergence, 125 g ai/ha, scale 0 to 100 (0 no effect, 100 complete control)
# [19] = Preemergence, 250 g ai/ha, scale 0 to 100 (0 no effect, 100 complete control)
# [20] = postemergence, 62 g ai/ha, scale 0 to 100, 0 no effect, 100 complete control
compound,measurement,setting,value
Cc1ccc(-c2c(O)c(Br)nn(C)c2=O)c2ccccc12 [Compound 52],"Bromegrass, Downy plant response rating",[1]; [14],0
same,"Plant response rating, Bromegrass, Downy",[1]; [15],0
same,"Plant response rating, Bromegrass, Downy",[1]; [16],10
same,"Plant response rating (scale of 0 to 100), Bromegrass, Downy","[1]; Preemergence, 31 g ai/ha",0
same,"Plant response rating, Bromegrass, Downy",[1]; [17],0
same,"Plant response rating, Bromegrass, Downy",[1]; [18],15
same,"Plant response rating, Bromegrass, Downy",[1]; [19],20
same,"Plant response rating, Bromegrass, Downy",[1]; [20],0
same,"Barley, Winter plant response rating",[2]; [14],0
same,"Plant response rating, Barley, Winter",[2]; [15],0
same,"Plant response rating, Barley, Winter",[2]; [16],0
same,"Plant response rating (scale of 0 to 100), Barley, Winter","[2]; Preemergence, 31 g ai/ha",0
same,"Plant response rating, Barley, Winter",[2]; [17],0
same,"Plant response rating, Barley, Winter",[2]; [18],0
same,"Plant response rating, Barley, Winter",[2]; [19],0
same,"Plant response rating, Barley, Winter",[2]; [20],0
same,Lambsquarters plant response rating,[3]; [14],75
same,"Plant response rating, Lambsquarters",[3]; [15],75
same,"Plant response rating, Lambsquarters",[3]; [16],90
same,"Plant response rating (scale of 0 to 100), Lambsquarters","[3]; Preemergence, 31 g ai/ha",35
same,"Plant response rating, Lambsquarters",[3]; [17],90
same,"Plant response rating, Lambsquarters",[3]; [18],100
same,"Plant response rating, Lambsquarters",[3]; [19],100
same,"Plant response rating, Lambsquarters",[3]; [20],75
same,Field Poppy plant response rating,[4]; [14],85
same,"Plant response rating, Field Poppy",[4]; [15],90
same,"Plant response rating, Field Poppy",[4]; [16],100
same,"Plant response rating (scale of 0 to 100), Field Poppy","[4]; Preemergence, 31 g ai/ha",0
same,"Plant response rating, Field Poppy",[4]; [17],0
same,"Plant response rating, Field Poppy",[4]; [18],100
same,"Plant response rating, Field Poppy",[4]; [19],100
same,"Plant response rating, Field Poppy",[4]; [20],80
same,Blackgrass plant response rating,[5]; [14],10
same,"Plant response rating, Blackgrass",[5]; [15],15
same,"Plant response rating, Blackgrass",[5]; [16],40
same,"Plant response rating (scale of 0 to 100), Blackgrass","[5]; Preemergence, 31 g ai/ha",20
same,"Plant response rating, Blackgrass",[5]; [17],20
same,"Plant response rating, Blackgrass",[5]; [18],65
same,"Plant response rating, Blackgrass",[5]; [19],65
same,"Plant response rating, Blackgrass",[5]; [20],15
same,"Foxtail, Green plant response rating",[6]; [14],5
same,"Plant response rating, Foxtail, Green",[6]; [15],10
same,"Plant response rating, Foxtail, Green",[6]; [16],40
same,"Plant response rating (scale of 0 to 100), Foxtail, Green","[6]; Preemergence, 31 g ai/ha",0
same,"Plant response rating, Foxtail, Green",[6]; [17],0
same,"Plant response rating, Foxtail, Green",[6]; [18],15
same,"Plant response rating, Foxtail, Green",[6]; [19],35
same,"Plant response rating, Foxtail, Green",[6]; [20],5
same,"Barley, Spring plant response rating",[7]; [14],0
same,"Plant response rating, Barley, Spring",[7]; [15],5
same,"Plant response rating, Barley, Spring",[7]; [16],0
same,"Plant response rating (scale of 0 to 100), Barley, Spring","[7]; Preemergence, 31 g ai/ha",0
same,"Plant response rating, Barley, Spring",[7]; [17],0
same,"Plant response rating, Barley, Spring",[7]; [18],0
same,"Plant response rating, Barley, Spring",[7]; [19],0
same,"Plant response rating, Barley, Spring",[7]; [20],0
same,Chickweed plant response rating,[8]; [14],90
same,"Plant response rating, Chickweed",[8]; [15],90
same,"Plant response rating, Chickweed",[8]; [16],100
same,"Plant response rating (scale of 0 to 100), Chickweed","[8]; Preemergence, 31 g ai/ha",98
same,"Plant response rating, Chickweed",[8]; [17],98
same,"Plant response rating, Chickweed",[8]; [18],100
same,"Plant response rating, Chickweed",[8]; [19],100
same,"Plant response rating, Chickweed",[8]; [20],100
same,Chamomile plant response rating,[9]; [14],85
same,"Plant response rating, Chamomile",[9]; [15],100
same,"Plant response rating, Chamomile",[9]; [16],100
same,"Plant response rating (scale of 0 to 100), Chamomile","[9]; Preemergence, 31 g ai/ha",60
same,"Plant response rating, Chamomile",[9]; [17],100
same,"Plant response rating, Chamomile",[9]; [18],100
same,"Plant response rating, Chamomile",[9]; [19],100
same,"Plant response rating, Chamomile",[9]; [20],100
same,"Ryegrass, Italian plant response rating",[10]; [14],40
same,"Plant response rating, Ryegrass, Italian",[10]; [15],75
same,"Plant response rating, Ryegrass, Italian",[10]; [16],80
same,"Plant response rating (scale of 0 to 100), Ryegrass, Italian","[10]; Preemergence, 31 g ai/ha",85
same,"Plant response rating, Ryegrass, Italian",[10]; [17],85
same,"Plant response rating, Ryegrass, Italian",[10]; [18],100
same,"Plant response rating, Ryegrass, Italian",[10]; [19],98
same,"Plant response rating, Ryegrass, Italian",[10]; [20],50
same,Deadnettle plant response rating,[11]; [14],35
same,"Plant response rating, Deadnettle",[11]; [15],35
same,"Plant response rating, Deadnettle",[11]; [16],35
same,"Plant response rating (scale of 0 to 100), Deadnettle","[11]; Preemergence, 31 g ai/ha",0
same,"Plant response rating, Deadnettle",[11]; [17],0
same,"Plant response rating, Deadnettle",[11]; [18],10
same,"Plant response rating, Deadnettle",[11]; [19],25
same,"Plant response rating, Deadnettle",[11]; [20],25
same,"Wheat, Winter plant response rating",[12]; [14],0
same,"Plant response rating, Wheat, Winter",[12]; [15],15
same,"Plant response rating, Wheat, Winter",[12]; [16],15
same,"Plant response rating (scale of 0 to 100), Wheat, Winter","[12]; Preemergence, 31 g ai/ha",0
same,"Plant response rating, Wheat, Winter",[12]; [17],0
same,"Plant response rating, Wheat, Winter",[12]; [18],0
same,"Plant response rating, Wheat, Winter",[12]; [19],0
same,"Plant response rating, Wheat, Winter",[12]; [20],10
same,"Wheat, Spring plant response rating",[13]; [14],0
same,"Plant response rating, Wheat, Spring",[13]; [15],0
same,"Plant response rating, Wheat, Spring",[13]; [16],5
same,"Plant response rating (scale of 0 to 100), Wheat, Spring","[13]; Preemergence, 31 g ai/ha",0
same,"Plant response rating, Wheat, Spring",[13]; [17],0
same,"Plant response rating, Wheat, Spring",[13]; [18],0
same,"Plant response rating, Wheat, Spring",[13]; [19],5
same,"Plant response rating, Wheat, Spring",[13]; [20],0
